Legend:
[1] = tested on: ERK 1/2; assay: ERK 1/2 phosphorylation in neuronal cultures, Western blot; type: cell-based, rat; settings: LK plus GW5074, 1 or 3 hours
Excerpt: Activation of all three Raf proteins results in activation of MEK and ERK.
Survival of cerebellar granule neurons can be maintained by BDNF and this effect of BDNF is mediated by the Raf-MEK-ERK signaling pathway (Bonni et al., 1999). The Raf-MEK-ERK pathway is also involved in promoting survival of other neuronal and normeuronal cell types. A potent blocker of the Raf-MEK-ERK pathway is PD98059 (Alessi et al., 1995). In paradigms in which the Raf-MEK-ERK pathway mediates neuronal survival, such as BDNF-treated cerebellar granule neurons, the presence of […] blocks survival (Bonni et al., 1999). […] Lysates from the cultures were subjected to Western blotting using an antibody specific for phospho-ERK.
For whole-cell lysates, the culture medium was discarded, the neurons washed twice with ice-cold phosphate-buffered saline (PBS), and lysed in lysis buffer (1% Triton, 20 mM Tris-HCl (pH 7.5), 150 mM NaCl, 1 mM Na2EDTA, 1 mM EGTA, 2.5 mM sodium pyrophosphate, 1 mM beta-glycerophosphate, 1 mM Na3VO4, 1 μg/ml leupeptin and 1× protease inhibitor mixture). Protein concentrations were measured using a Bradford protein assay kit (Bio-Rad), and equivalent amounts of protein were mixed with 6×SDS-PAGE sample buffer. […] After staining with Ponceau S to verify uniformity of protein loads/transfer, the membranes were analyzed for immunoreactivity. […]

[2] = tested on: cerebellar granule neurons; assay: MPP+-induced cell death in cerebellar granule neurons; type: cell-based, rat; settings: HK + 200 uM MPP+, different concentrations of GW5074, 24 hours
[3] = molecular target: C-Raf (Homo sapiens, UniProt P04049); assay: In vitro kinase assay, purified kinase (Upstate Kinase Profiling); type: biochemical
Procedure: In general, in vitro kinase assays were performed using purified kinase and synthetic substrates under standard conditions using the Kinase Profiling service of Upstate Biotechnology. Briefly, for each assay 5-10 mU of purified kinase was used. […] Kinase activity was quantified by measuring ^33P incorporation by spotting an aliquot on P30 filters, washing in 50 mM phosphoric acid and scintillation counting. The buffer composition for C-Raf, JNK1, JNK2, JNK3, MEK1, MKK6, MKK7 was 50 mM Tris pH7.5, 0.1 mM EGTA, 10 mM Mg acetate and [γ-^33P-ATP]. The peptide substrates used were as follows: For C-Raf, 0.66 mg/ml MBP; for cdks, 0.1 mg/ml histone H1; for JNKs, 3 uM ATF2; for MEK1, 1 uM MAPK2; for MKK6, 1 uM of SAPK2a and for MKK7, 2 uM JNK1α.

[4] = molecular target: cdk2 (Homo sapiens, UniProt P24941); settings: Lackey et al., 2000; cited from earlier work
[5] = tested on: c-jun; assay: c-jun phosphorylation (Ser63) and total c-jun, Western blot; type: cell-based, rat; settings: LK + 1 uM GW5074, 1 and 3 hours
Procedure: In granule neurons, phosphorylation of c-jun occurs within 1 hour of LK treatment (Ham et al., 1995; Watson et al. 1998). […] The same blot was reprobed with an antibody against total c-jun (lower panel).
For whole-cell lysates, the culture medium was discarded, the neurons washed twice with ice-cold phosphate-buffered saline (PBS), and lysed in lysis buffer (1% Triton, 20 mM Tris-HCl (pH 7.5), 150 mM NaCl, 1 mM Na2EDTA, 1 mM EGTA, 2.5 mM sodium pyrophosphate, 1 mM beta-glycerophosphate, 1 mM Na3VO4, 1 μg/ml leupeptin and 1× protease inhibitor mixture). Protein concentrations were measured using a Bradford protein assay kit (Bio-Rad), and equivalent amounts of protein were mixed with 6×SDS-PAGE sample buffer. Following heating at 95° C. for 5 min, proteins were subjected to SDS-polyacrylamide gel electrophoresis and transferred electrophoretically to polyvinylidene difluoride membrane (PVDF; Bio Rad). After staining with Ponceau S to verify uniformity of protein loads/transfer, the membranes were analyzed for immunoreactivity. Incubation with primary antibodies was performed overnight at 4° C. and with secondary antibodies for 1 h at room temperature. Immunoreactivity was developed by enhanced chemiluminescence (ECL; Amersham) and visualized by autoradiography. All antibodies were from Cell Signaling.

[6] = tested on: cerebellar granule neurons; assay: Apoptosis of neurons infected with adenoviral dominant-negative Akt; type: cell-based, rat; settings: LK + 1 uM GW5074 or 25 ng/ml IGF-1
Excerpt: Five day old neuronal cultures were infected with adenoviral vectors expressing either GFP or hemagluttinin (HA)-tagged dominant-negative Akt. […] Infected neurons were detected by positive staining for GFP or HA by immunocytochemistry. The proportion of apoptotic cells (condensed or fragmented nuclei) as a percentage of total infected neurons was quantified following DAPI-staining.
DnAkt and control recombinant adenovirus expressing green fluorescent protein (Ad-GFP) are propagated in HEK293T cells and purified by cesium chloride density gradient centrifugation. After quantification of titer, virus at an MOI of 10 are used to infect granule neuron cultures 5 days after plating by direct addition to the medium. Treatments are performed 24 hours after addition of virus.

[7] = molecular target: T1, C-Raf (Rattus norvegicus, UniProt P11345); assay: Activity of C-Raf immunoprecipitated from neuronal lysates, GST-MEK substrate, phospho-MEK Western; type: cell-based
T1 construct: Activities of endogenous C-Raf and B-Raf activity was assayed by measuring the ability of kinase immunoprecipitated from neuronal lysates; endogenous in cells; host or cells: primary rat cerebellar granule neurons
Procedure: The immunoprecipitated C-Raf was used in in vitro kinase assays using GST-MEK as substrate and the reaction products subjected to Western analysis. Phosphorylation of MEK was detected using a phospho-MEK antibody. […] After 1 hour of treatment, the cultures were lysed, C-Raf immunoprecipitated from the lysate and used in an in vitro kinase assay with MEK as substrate. The reaction mixture was subjected to Western analysis using a phospho-MEK antibody as probe.
(Hall-Jackson et al., 1999). […] Lysates from the cultures were used in a kinase reaction with MEK as substrate. […] Phosphorylation of MEK was detected by Western blot analysis using an phospho-MEK antibody and the same blot was reprobed with a C-Raf antibody.
After treatment, cultures of 7-8-day old neurons were washed twice with ice-cold PBS and lysed in ice cold lysis buffer. The lysates were centrifuged for 10 min at 10,000 rpm at 4° C. Protein concentrations of the supernatant were measured using a Bradford protein assay kit (Bio-Rad), and equivalent amounts of protein were incubated overnight with primary antibody (1.0-2 ug) and then for 2 h with 20 ul Protein A/G PLUS-Agarose (Santa Cruz Biotech.) Immunoprecipitates were collected by centrifugation at 2,500 rpm for 5 min at 4° C. and washed three times with lysis buffer, and pellets resuspended in electrophoresis sample buffer (187.5 mM Tris-HCl (pH 6.8 at 25° C.), 6% SDS, 30% glycerol, 150 mM DTT, 0.03% bromophenol blue), boiled for 4 min and subjected to SDS-polyacrylamide gel electrophoresis.
Activities of endogenous C-Raf and B-Raf activity was assayed by measuring the ability of kinase immunoprecipitated from neuronal lysates to phosphorylate a kinase-dead recombinant GST-MEK1 substrate. Following immunoprecipitation and multiple washes with lysis buffer, lysis buffer supplemented with 350 mM NaCl, and kinase buffer (25 mM HEPES pH 7.4 and 10 mM MgCl2), in vitro kinase assays are performed on the immune complexes using purified recombinant GST-MEK1 K97M protein as a substrate in kinase buffer supplemented with 85 μM ATP for 35 minutes at 30° C. Reactions are stopped by the addition of 3×SDS sample buffer and boiled for five minutes. Proteins are resolved by SDS-PAGE and subjected to Western blotting. The level of phosphorylated MEK is detected by a phospho-MEK antibody.

[8] = molecular target: p38 MAP kinase (Homo sapiens, UniProt Q16539); settings: Lackey et al., 2000; cited from earlier work
[9] = molecular target: VEGFR2 (Homo sapiens, UniProt P35968); settings: Lackey et al., 2000; cited from earlier work
[10] = tested on: cerebellar granule neurons; assay: Methylmercury-induced cell death in cerebellar granule neurons; type: cell-based, rat; settings: HK + 0.5 uM methylmercury, different concentrations of GW5074, 24 hours

T1 sequence (P11345 whole entry): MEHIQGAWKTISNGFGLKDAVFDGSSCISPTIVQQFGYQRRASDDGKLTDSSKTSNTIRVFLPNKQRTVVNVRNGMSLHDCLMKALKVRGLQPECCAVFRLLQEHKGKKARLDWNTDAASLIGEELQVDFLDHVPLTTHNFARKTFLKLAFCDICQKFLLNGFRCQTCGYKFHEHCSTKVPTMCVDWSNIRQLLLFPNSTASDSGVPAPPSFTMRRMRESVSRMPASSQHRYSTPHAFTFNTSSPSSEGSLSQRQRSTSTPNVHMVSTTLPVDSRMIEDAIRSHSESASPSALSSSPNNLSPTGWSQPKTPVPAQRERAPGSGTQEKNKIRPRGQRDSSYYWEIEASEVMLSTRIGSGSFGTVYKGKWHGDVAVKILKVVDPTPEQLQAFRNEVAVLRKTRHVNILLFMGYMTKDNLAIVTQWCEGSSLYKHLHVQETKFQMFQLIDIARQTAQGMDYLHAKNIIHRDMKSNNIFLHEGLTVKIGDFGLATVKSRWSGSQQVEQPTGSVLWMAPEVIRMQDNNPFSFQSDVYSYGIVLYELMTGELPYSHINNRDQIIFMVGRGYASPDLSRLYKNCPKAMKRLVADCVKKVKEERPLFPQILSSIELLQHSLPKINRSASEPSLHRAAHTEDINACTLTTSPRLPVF
Sequence of VEGFR2 (P35968 20-1356, species assumed): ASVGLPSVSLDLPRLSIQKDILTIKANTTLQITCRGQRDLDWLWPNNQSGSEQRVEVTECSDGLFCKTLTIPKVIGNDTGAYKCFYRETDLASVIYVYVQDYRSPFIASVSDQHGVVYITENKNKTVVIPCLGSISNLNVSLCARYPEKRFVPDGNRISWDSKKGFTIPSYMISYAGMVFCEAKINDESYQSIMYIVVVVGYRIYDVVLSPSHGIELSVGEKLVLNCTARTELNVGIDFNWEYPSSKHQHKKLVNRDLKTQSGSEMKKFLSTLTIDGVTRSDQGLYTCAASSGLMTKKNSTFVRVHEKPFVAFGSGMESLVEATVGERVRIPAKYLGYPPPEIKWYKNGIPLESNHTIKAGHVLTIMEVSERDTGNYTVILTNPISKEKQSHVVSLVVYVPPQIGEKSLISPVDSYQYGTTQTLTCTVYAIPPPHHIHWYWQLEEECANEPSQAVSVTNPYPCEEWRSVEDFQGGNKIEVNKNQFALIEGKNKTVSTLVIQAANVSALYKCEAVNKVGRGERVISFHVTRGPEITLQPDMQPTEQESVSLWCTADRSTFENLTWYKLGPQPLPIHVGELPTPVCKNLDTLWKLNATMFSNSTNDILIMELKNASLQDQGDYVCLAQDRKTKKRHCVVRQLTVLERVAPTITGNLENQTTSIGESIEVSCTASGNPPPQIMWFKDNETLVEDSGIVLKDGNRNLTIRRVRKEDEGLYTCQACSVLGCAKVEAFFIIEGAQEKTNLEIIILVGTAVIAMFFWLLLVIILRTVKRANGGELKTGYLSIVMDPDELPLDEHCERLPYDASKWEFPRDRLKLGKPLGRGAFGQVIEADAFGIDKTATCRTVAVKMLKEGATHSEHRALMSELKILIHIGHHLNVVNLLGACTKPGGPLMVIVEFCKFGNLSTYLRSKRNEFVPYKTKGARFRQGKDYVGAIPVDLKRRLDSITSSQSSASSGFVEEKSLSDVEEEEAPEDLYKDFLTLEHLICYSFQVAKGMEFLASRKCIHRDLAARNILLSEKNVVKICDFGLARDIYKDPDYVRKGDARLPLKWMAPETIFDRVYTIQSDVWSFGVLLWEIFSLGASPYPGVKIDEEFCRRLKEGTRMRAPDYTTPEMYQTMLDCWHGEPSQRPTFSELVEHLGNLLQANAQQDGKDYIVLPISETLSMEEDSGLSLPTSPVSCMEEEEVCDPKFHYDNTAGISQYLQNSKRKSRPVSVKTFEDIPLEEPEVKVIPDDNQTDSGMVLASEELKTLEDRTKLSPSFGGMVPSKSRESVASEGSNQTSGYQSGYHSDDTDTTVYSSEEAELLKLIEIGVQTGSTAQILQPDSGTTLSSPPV
Sequence of C-Raf (Homo sapiens, UniProt P04049) (P04049 whole entry, species assumed): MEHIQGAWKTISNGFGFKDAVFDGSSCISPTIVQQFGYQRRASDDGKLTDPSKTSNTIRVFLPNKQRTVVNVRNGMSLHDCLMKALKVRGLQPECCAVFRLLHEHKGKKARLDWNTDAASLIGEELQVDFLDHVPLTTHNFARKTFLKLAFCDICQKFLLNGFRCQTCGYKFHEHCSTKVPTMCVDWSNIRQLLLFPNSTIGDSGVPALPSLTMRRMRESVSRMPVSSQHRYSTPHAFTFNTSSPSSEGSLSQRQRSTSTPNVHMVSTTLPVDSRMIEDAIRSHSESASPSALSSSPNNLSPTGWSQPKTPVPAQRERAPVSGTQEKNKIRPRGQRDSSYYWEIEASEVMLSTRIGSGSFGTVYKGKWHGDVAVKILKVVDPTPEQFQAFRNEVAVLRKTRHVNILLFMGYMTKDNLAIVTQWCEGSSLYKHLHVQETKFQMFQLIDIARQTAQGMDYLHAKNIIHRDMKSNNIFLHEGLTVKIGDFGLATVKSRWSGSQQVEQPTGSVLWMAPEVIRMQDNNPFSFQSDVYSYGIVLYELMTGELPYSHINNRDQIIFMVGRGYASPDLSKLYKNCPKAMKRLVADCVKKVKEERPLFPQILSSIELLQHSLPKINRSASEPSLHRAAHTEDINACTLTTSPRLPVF
Sequence of p38 MAP kinase (Q16539 whole entry): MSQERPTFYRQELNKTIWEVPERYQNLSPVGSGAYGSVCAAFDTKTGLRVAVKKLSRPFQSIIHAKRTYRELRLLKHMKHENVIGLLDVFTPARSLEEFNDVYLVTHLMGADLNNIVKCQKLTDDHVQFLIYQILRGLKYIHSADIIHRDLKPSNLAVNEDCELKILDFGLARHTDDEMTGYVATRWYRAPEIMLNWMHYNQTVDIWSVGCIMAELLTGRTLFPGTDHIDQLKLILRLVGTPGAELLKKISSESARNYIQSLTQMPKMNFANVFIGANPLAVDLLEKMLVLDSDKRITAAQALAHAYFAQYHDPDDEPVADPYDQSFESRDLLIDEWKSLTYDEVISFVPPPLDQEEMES

Compound: O=C1Nc2ccc(I)cc2C1=Cc1cc(Br)c(O)c(Br)c1 [GW5074, 5-Iodo-3-[(3,5-dibromo-4-hydroxyphenyl)methylene]-2-indolinone]
- phosphorylation of ERK 1/2 [1]: increase in the phosphorylation of ERK 1/2
- MPP+-induced cell death [2]: reduced MPP^+-induced cell death
- activity at 1 µM [3]: 3%
- effect on activity of cdk2 [4]: no effect
- LK-induced c-jun phosphorylation and synthesis [5]: prevents LK-induced c-jun phosphorylation and its increased synthesis
- effect of dominant-negative Akt on survival promotion [6]: no effect on the ability of GW5074 to maintain neuronal survival
- concentration inhibiting immunoprecipitated C-Raf when added in vitro ([7]; GW5074 added to the immunoprecipitated enzyme in the kinase reaction): lower than 1 uM
- activity of C-Raf immunoprecipitated from treated cultures ([7]; LK + GW5074 0.25-5 uM, 1 hour): marked induction
- effect on activity of p38 MAP kinase [8]: no effect
- effect on activity of VEGFR2 [9]: no effect
- methylmercury-induced cell death [10]: reduced methylmercury-induced cell death

From US20050250837A1, “Use of C-Raf inhibitors for the treatment of neurodegenerative diseases” (priority 2002, published 2005)
